Like-named read-outs stand apart in the source and are kept apart here.
Legend:
[1] = in vivo; cited from earlier work
[2] = test system: Wild type or MCH1R KO mice; conditions: for 2 hour food intake: 1 μg MT-II icv at onset of dark cycle, vs aCSF vehicle
Protocol: Wild type or MCH1R KO mice were implanted with intracerebroventricular (icv) cannulae for icv administration of compounds. One microgram of MT-II was given by icv injection per animal at the onset of dark cycle and food intake was measured 2 hours post-injection. Overnight body weight differences were also measured. Artificial cerebrospinal fluid (aCSF) was used as a vehicle to dissolve MT-II.

[3] = test system: wild type, NPY KO mice, and AGRP-NPY double KO mice; assay: CB-1 inverse agonist - NPY knock out mouse study (overnight food intake); type: in vivo; conditions: 3 mg/kg orally
Protocol: AM25 1 was given to wild type, NPY KO Mice, and AGRP-NPY double KO mice orally at 3 mg/kg. Overnight food intake was measured.

[4] = test system: wild type and MCH1R KO mice; assay: CB-1 inverse agonist - MCH1R knock out mouse study (2 hour and overnight food intake); type: in vivo; conditions: 5 mg/kg orally
Protocol: AM251 was given to wild type and MCH1R KO mice orally at 5 mg/kg. Two hour and overnight food intake were measured.

CC1(C)O[C@@H]2[C@@H](CO[C@@]3(COS(N)(=O)=O)OC(C)(C)O[C@@H]23)O1 [Topiramate]
weight loss [1]: increase weight loss

Melanotan-II [MT-II]
overnight body weight compared to vehicle treated mice ([2]; MCH1R KO mice, 1 μg MT-II icv): reduced body weight | 2 hour food intake ([2]; MCH1R KO mice): significantly inhibited | decrease of overnight food intake ([2]; MCH-1R knock out mice, 1 μg MT-II icv, overnight): greater than 80% | decrease in food intake, MCH-1R knock out mice versus wild type mice ([2]; MT-II treated MCH-1R knock out mice compared with MT-II treated wild type mice, FIG. 1): significantly greater decrease in food intake | overnight decrease in bodyweight, MCH-1R knock out mice versus wild type mice ([2]; MT-II treated MCH-1R knock out mice compared with MT-II treated wild type mice, FIG. 2): greater overnight decrease in bodyweight | overnight body weight compared to vehicle treated mice ([2]; wild type mice, 1 μg MT-II icv): reduced body weight | 2 hour food intake ([2]; wild type mice): significantly inhibited

Cc1c(C(=O)NN2CCCCC2)nn(-c2ccc(Cl)cc2Cl)c1-c1ccc(I)cc1 [AM251]
overnight food intake ([3]; AGRP-NPY double KO mice): significantly inhibits | overnight food intake ([3]; NPY KO mice): significantly inhibits | overnight food intake ([3]; wild type mice): significantly inhibits | 2 hour food intake ([4]; MCH1R KO mice): significantly inhibited | overnight food intake ([4]; MCH1R KO mice, 5 mg/kg): inhibits | overnight food intake ([4]; MCH1R KO mice, listed as AM 251, 5 mg/kg): significantly inhibited | 2 hour food intake ([4]; wild type mice): significantly inhibited | overnight food intake ([4]; wild type mice, 5 mg/kg): inhibits | overnight food intake ([4]; wild type mice, listed as AM 251, 5 mg/kg): significantly inhibited
